Data reported in patent US20230312528A1, “2-OXO-IMIDAZOLIDINE-4-CARBOXAMIDES AS NAV1.8 INHIBITORS” (Merck Sharp & Dohme LLC, priority 2020, published 2023).

Biological target: human NaV1.8 (Homo sapiens (Human), UniProt Q9Y5Y9)
Experiment: Nav1.8 Qube automated patch-clamp assay
Assay type: cell-based
Settings: human NaV1.8 stably expressed in HEK 293 cells; automated 384-well patch-clamp; resting or inactivated state not specified
Method: Compounds were tested on human NaV1.8 and NaV1.5 channels stably expressed in human embryo kidney (HEK) 293 cells. Sodium current measurements on Qube® were conducted as follows: automated 384-well patch-clamp assays on the Qube® platform (Sophion Biosciences) were used to measure the inhibition of sodium flow through human NaV1.8 and NaV1.5 channels. Whole-cell voltage-clamp recordings were performed in QChips® (Sophion Biosciences) at room temperature. NaV1.8 current measurements on Qube® were obtained as follows: NaV1.8 currents were elicited with a 10 second 1 Hertz (Hz) pulse train from a holding potential of −90 millivolts (mV), delivered to the cells once per minute in the control condition (DMSO only) and after compound addition. The 1 hertz pulse train stimulation consisted of ten test pulses to 10 millivolt (mV) for 20 milliseconds (ms), each of which was followed by a 980 millisecond repolarization to −67 millivolts. At the end of the 10 second pulse train stimulation, a 5 second hyperpolarization step to −100 millivolt (mV) was used to recover NaV1.8 from fast inactivation. The peak currents elicited by the 1st and 10th test pulses were used to determine IC50 values for resting inhibition and inactivated state inhibition. NaV1.5 current measurements on Qube® were obtained as follows: NaV1.5 currents were elicited with a 20 second 3 Hertz pulse train in the control condition (DMSO only) and after compound addition. The pulse train consisted of sixty 20 millisecond test pulses to 0 millivolt from a holding potential of −80 millivolt (mV). The average peak currents elicited by the last 3 test pulses were used to determine IC50 values for NaV1.5 inhibition.
The following buffers were used for the Qube® recordings: External buffer for NaV1.8 Qube® recording: 150 NaCl, 2 CaCl2, 5 KCl, 1 Mg Cl2, 10 HEPES, 12 Dextrose; External buffer for Qube® NaV1.5 recording: 120 N-Methyl-D-Glucamine, 40 NaCl, 1 KCl, 2.7 CaCl2, 5 HEPES, 0.5 MgCl2; and Internal buffer for Qube® recording: 120 CsF, 30 CsCl, 10 EGTA, 5 HEPES, 5 NaF, 2 MgCl2.
For all Qube® experiments offline analysis was used to determine percent inhibition as a function of drug concentration. IC50 values were determined by fitting to the Hill equation.

human NaV1.8, sequence (Q9Y5Y9 whole entry): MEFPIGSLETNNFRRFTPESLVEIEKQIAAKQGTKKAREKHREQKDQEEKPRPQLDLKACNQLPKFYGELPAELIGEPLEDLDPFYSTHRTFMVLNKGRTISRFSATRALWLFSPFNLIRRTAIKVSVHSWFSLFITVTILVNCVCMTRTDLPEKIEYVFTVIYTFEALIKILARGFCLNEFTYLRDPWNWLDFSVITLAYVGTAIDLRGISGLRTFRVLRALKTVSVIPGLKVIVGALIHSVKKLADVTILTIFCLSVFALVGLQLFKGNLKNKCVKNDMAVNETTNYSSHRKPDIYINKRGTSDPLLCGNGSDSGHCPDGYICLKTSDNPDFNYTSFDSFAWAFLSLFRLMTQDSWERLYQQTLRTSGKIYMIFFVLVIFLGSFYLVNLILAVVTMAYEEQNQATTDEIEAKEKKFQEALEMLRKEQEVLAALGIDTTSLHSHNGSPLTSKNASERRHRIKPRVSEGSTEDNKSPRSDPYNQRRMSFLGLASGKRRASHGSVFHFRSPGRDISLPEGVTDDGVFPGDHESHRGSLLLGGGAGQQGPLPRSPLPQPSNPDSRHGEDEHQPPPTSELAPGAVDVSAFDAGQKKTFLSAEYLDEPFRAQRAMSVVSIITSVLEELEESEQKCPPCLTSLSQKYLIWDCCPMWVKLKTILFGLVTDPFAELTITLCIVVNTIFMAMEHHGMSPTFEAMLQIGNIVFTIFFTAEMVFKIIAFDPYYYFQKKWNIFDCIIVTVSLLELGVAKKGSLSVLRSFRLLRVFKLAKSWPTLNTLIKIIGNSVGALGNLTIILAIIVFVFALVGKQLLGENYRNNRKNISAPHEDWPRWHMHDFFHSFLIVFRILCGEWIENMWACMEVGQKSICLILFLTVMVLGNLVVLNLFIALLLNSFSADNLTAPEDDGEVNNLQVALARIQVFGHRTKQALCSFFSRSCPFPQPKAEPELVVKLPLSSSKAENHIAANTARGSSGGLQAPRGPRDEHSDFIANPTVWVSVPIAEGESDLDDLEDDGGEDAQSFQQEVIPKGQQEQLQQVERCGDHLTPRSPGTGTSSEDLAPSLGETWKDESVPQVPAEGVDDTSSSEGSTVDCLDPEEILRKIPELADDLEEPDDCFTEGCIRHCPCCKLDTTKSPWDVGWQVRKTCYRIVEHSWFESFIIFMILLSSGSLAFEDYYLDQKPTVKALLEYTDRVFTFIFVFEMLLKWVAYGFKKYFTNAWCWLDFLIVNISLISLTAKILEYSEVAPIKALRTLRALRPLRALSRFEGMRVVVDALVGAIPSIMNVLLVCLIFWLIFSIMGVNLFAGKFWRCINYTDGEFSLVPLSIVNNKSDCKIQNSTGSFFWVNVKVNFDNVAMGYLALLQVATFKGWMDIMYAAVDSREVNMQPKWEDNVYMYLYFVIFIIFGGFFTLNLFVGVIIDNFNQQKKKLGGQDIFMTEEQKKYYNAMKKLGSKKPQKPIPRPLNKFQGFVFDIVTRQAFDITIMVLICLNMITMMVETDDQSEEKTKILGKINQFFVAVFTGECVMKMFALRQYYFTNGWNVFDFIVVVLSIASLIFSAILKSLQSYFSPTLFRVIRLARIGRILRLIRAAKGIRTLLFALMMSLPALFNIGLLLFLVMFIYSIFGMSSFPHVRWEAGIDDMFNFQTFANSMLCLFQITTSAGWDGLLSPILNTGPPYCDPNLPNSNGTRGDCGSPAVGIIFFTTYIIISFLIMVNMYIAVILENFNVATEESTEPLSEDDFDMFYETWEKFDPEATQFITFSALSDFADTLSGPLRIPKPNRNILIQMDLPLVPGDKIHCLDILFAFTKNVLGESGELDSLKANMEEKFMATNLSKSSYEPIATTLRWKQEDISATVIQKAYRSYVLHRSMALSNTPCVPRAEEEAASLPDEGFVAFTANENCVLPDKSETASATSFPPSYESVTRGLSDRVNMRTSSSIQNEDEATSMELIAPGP

IC50 | Structure (SMILES)
81 nM | N#Cc1cccc(C(NC(=O)[C@@H]2CNC(=O)N2)c2ccc(F)c(Cl)c2)n1 (single isomer, unassigned) [Example 12A, (4S)-N-[((R or S)-3-chloro-4-fluorophenyl)(6-cyanopyridin-2-yl)methyl]-2-oxoimidazolidine-4-carboxamide]
1420 nM | N#Cc1cccc(C(NC(=O)[C@@H]2CNC(=O)N2)c2ccc(F)c(Cl)c2)n1 (single isomer, unassigned) [Example 12B, (4S)-N-[((R or S)-3-chloro-4-fluorophenyl)(6-cyanopyridin-2-yl)methyl]-2-oxoimidazolidine-4-carboxamide]
1.1 nM | O=C1NC[C@@H](C(=O)NC(c2cnc(C3CC3)c(Cl)c2)c2ccc(F)c(Cl)c2F)N1 (single isomer, unassigned) [Example 13A, (4S)-N-[((R or S)-5-chloro-6-cyclo-propylpyridin-3-yl)(3-chloro-2,4-difluoro-phenyl)methyl]-2-oxoimidazolidine-4-carboxamide]
38 nM | O=C1NC[C@@H](C(=O)NC(c2cnc(C3CC3)c(Cl)c2)c2ccc(F)c(Cl)c2F)N1 (single isomer, unassigned) [Example 13B, (4S)-N-[((R or S)-5-chloro-6-cyclo-propylpyridin-3-yl)(3-chloro-2,4-difluoro-phenyl)methyl]-2-oxoimidazolidine-4-carboxamide]
2.4 nM | O=C1NC[C@@H](C(=O)NC(c2cnc(C(F)(F)F)c(Cl)c2)c2ccc(F)c(C(F)(F)F)n2)N1 (single isomer, unassigned) [Example 14A, (4S)-N-{[(R or S)-5-chloro-6-(trifluoro-methyl)pyridin-3-yl][5-fluoro-6-(trifluoro-methyl)pyridin-2-yl]methyl}-2-oxoimidazolidine-4-carboxamide]
21 nM | O=C1NC[C@@H](C(=O)NC(c2cnc(C(F)(F)F)c(Cl)c2)c2ccc(F)c(C(F)(F)F)n2)N1 (single isomer, unassigned) [Example 14B, (4S)-N-{[R or S)-5-chloro-6-(trifluoro-methyl)pyridin-3-yl][5-fluoro-6-(trifluoro-methyl)pyridin-2-yl]methyl}-2-oxoimidazolidine-4-carboxamide]
31 nM | C[C@@H]1C[C@H](C(NC(=O)[C@@H]2CNC(=O)N2)c2ccc(F)c(Cl)c2)C[C@H](C)N1CC(F)(F)F (single isomer, unassigned) [Example 15A, (S)-N-((R or S)-(3-chloro-4-fluoro-phenyl)(cis-2,6-dimethyl-1-(2,2,2-trifluoroethyl)piperidin-4-yl)methyl)-2-oxoimidazolidine-4-carboxamide]
965 nM | C[C@@H]1C[C@H](C(NC(=O)[C@@H]2CNC(=O)N2)c2ccc(F)c(Cl)c2)C[C@H](C)N1CC(F)(F)F (single isomer, unassigned) [Example 15B, (S)-N-((R or S)-(3-chloro-4-fluoro-phenyl)(cis-2,6-dimethyl-1-(2,2,2-trifluoroethyl)piperidin-4-yl)methyl)-2-oxoimidazolidine-4-carboxamide]
1.1 nM | O=C1NC[C@@H](C(=O)NC(c2ccc(F)c(Cl)c2)c2csc(C3(C(F)(F)F)CC3)n2)N1 (single isomer, unassigned) [Example 16A, (S)-N-((R or S)-(3-choro-4-fluoro-phenyl)(2-(1-(trifluoromethyl)cyclopropyl)thiazol-4-yl)methyl)-2-oxoimidazolidine-4-carboxamide]
14 nM | O=C1NC[C@@H](C(=O)NC(c2ccc(F)c(Cl)c2)c2csc(C3(C(F)(F)F)CC3)n2)N1 (single isomer, unassigned) [Example 16B, (S)-N-((R or S)-(3-chloro-4-fluoro-phenyl)(2-(1-(trifluoromethyl)cyclopropyl)thiazol-4-yl)methyl)-2-oxoimidazolidine-4-carboxamide]
0.6 nM | O=C1NC[C@@H](C(=O)NC(c2ccc(Cl)cc2)c2ccc(F)c(C(F)(F)F)c2)N1 (single isomer, unassigned) [Example 17A, (S)-N-((R or S)-(4-chlorophenyl)(4-fluoro-3-(trifluoro-methyl)phenyl)methyl)-2-oxoimidazolidine-4-carboxamide]
7 nM | O=C1NC[C@@H](C(=O)NC(c2ccc(Cl)cc2)c2ccc(F)c(C(F)(F)F)c2)N1 (single isomer, unassigned) [Example 17B, (S)-N-((R or S)-(4-chloropehnyl)(4-fluoro-3-(trifluoro-methyl)phenyl)methyl)-2-oxoimidazolidine-4-carboxamide]
18 nM | N#Cc1ccc(C(NC(=O)[C@@H]2CNC(=O)N2)c2ccc(F)c(Cl)c2)cc1 (single isomer, unassigned) [Example 18A, (S)-N-((R or S)-(3-chloro-4-fluoro-phenyl)(4-cyano-phenyl)methyl)-2-oxoimidazolidine-4-carboxamide]
17 nM | N#Cc1ccc(C(NC(=O)[C@@H]2CNC(=O)N2)c2ccc(F)c(Cl)c2)cc1 (single isomer, unassigned) [Example 18B, (S)-N-((R or S)-(3-chloro-4-fluoro-phenyl)(4-cyano-phenyl)methyl)-2-oxoimidazolidine-4-carboxamide]
209 nM | O=C(NC(c1ccc(Cl)cc1)c1ccc(Cl)cc1)C1CNC(=O)N1CCO (single isomer, unassigned) [Example 21A, (R or S)—N-(bis(4-chlorophenyl)methyl)-3-(2-hydroxyethyl)-2-oxoimidazolidine-4-carboxamide]
14700 nM | O=C(NC(c1ccc(Cl)cc1)c1ccc(Cl)cc1)C1CNC(=O)N1CCO (single isomer, unassigned) [Example 21B, (R or S)—N-(bis(4-chlorophenyl)methyl)-3-(2-hydroxyethyl)-2-oxoimidazolidine-4-carboxamide]
373 nM | O=C1NC[C@@H](C(=O)NC(c2ccc(Cl)cc2)c2cnc(C(F)(F)F)[nH]2)N1 (single isomer, unassigned) [Example 22A, (S)—N—((R or S)-(4-chlorophenyl)(2-(trifluoromethyl)-1H-imidazol-4-yl)methyl)-2-oxoimidazolidine-4-carboxamide]
6410 nM | O=C1NC[C@@H](C(=O)NC(c2ccc(Cl)cc2)c2cnc(C(F)(F)F)[nH]2)N1 (single isomer, unassigned) [Example 22B, (S)—N—((R or S)-(4-chlorophenyl)(2-(trifluoromethyl)-1H-imidazol-4-yl)methyl)-2-oxoimidazolidine-4-carboxamide]
15 nM | O=C1NC[C@@H](C(=O)NC(CC2CCC(C(F)(F)F)CC2)c2ccc(F)c(Cl)c2F)N1 (single isomer, unassigned) [Example 23A, (S)—N—((R or S)-1-(3-chloro-2,4-difluorophenyl)-2-((cis or trans)-4-(trifluoromethyl)cyclohexyl)ethyl)-2-oxoimidazolidine-4-carboxamide]
4.9 nM | O=C1NC[C@@H](C(=O)NC(CC2CCC(C(F)(F)F)CC2)c2ccc(F)c(Cl)c2F)N1 (single isomer, unassigned) [Example 23B, (S)—N—((R or S)-1-(3-chloro-2,4-difluorophenyl)-2-((cis or trans)-4-(trifluoro-methyl)cyclohexyl)ethyl)-2-oxoimidazolidine-4-carboxamide]
62 nM | O=C1NC[C@@H](C(=O)NC(CC2CCC(C(F)(F)F)CC2)c2ccc(F)c(Cl)c2F)N1 (single isomer, unassigned) [Example 23C, (S)—N—((R or S)-1-(3-chloro-2,4-difluorophenyl)-2-((cis or trans)-4-(trifluoromethyl)cyclohexyl)ethyl)-2-oxoimidazolidine-4-carboxamide]
190 nM | O=C1NC[C@@H](C(=O)NC(CC2CCC(C(F)(F)F)CC2)c2ccc(F)c(Cl)c2F)N1 (single isomer, unassigned) [Example 23D, (S)—N—((R or S)-1-(3-chloro-2,4-difluorophenyl)-2-((cis or trans)-4-(trifluoromethyl)cyclohexyl)ethyl)-2-oxoimidazolidine-4-carboxamide]

Structure (SMILES) | IC50
CC1(C(=O)NC(c2ccc(Cl)cc2)c2ccc(Cl)cc2)NC(=O)NC1=O (single isomer, unassigned) [Example 20A, (R or S)—N-(bis(4-chlorophenyl)methyl)-4-methyl-2,5-dioxoimidazolidine-4-carboxamide] | 19200 nM
CC1(C(=O)NC(c2ccc(Cl)cc2)c2ccc(Cl)cc2)NC(=O)NC1=O (single isomer, unassigned) [Example 20B, (R or S)—N-(bis(4-chlorophenyl)methyl)-4-methyl-2,5-dioxoimidazolidine-4-carboxamide] | 9480 nM
